According to patent US20250186491A1, “COMPOSITIONS AND METHODS FOR TREATING CANCER WITH CHIMERIC TIM RECEPTORS IN COMBINATION WITH INHIBITORS OF POLY (ADP-RIBOSE) POLYMERASE” (CERO THERAPEUTICS HOLDINGS, INC., priority 2020, published 2025):
Blank lines part the entries; values can stand above or below the molecule they belong to.

Legend:
A2780-mCh-NLS cells = settings: FIG. 11A
Experimental: (§1) Flow cytometry measurement of surface PS: A2780-mCh-NLS cells were treated with […] Niraparib or with equivalent volume of DMSO (control). 48 hours later samples were trypsinized and stained using a Tim4-Fc followed by a fluorescently-labeled secondary antibody to the Tim4-Fc. Samples were immediately analyzed via Flow cytometry.

[1] = tested on: Kuramochi ovarian cancer cells; assay: Kuramochi cell number under PARP inhibitors, tracked via imaging; assay type: cell-based, human; settings: for elimination of the Kuramochi culture: by t=50 h; for EC50 values (ranking), number of Kuramochi cells: five PARP inhibitors compared
Experimental: Kuramochi ovarian cancer cells expressing an mCherry-NLS plasmid were incubated with 0.78 to 100 uM of the PARP inhibitor Niraparib. The number of Kuramochi cells/well was tracked via imaging.

Kuramochi cells = tested on: Kuramochi cells
Experimental: FIG. 8A: Flow cytometry measurement of surface PtdSer. Kuramochi cells were treated with 1.56 or 25 μM Niraparib or with equivalent volume of DMSO (control). 48 hours later samples were trypsinized and stained using a Tim4-Fc followed by a fluorescently-labeled secondary anti body to the Tim4-Fc. FIG. 8B: Kuramochi cells pre-treated for ˜20 hours with 1.56 μM Niraparib were co-cultured with pCTX133 and Untransduced CD4 T cells from donor 32 at a 2:1 T cell:Kuramochi ratio and a final Niraparib concentration of 1.56 μM. […] All data were collected via IncuCyte.
as §1

EC50 values (ranking), number of Kuramochi cells ([1]; t=50 h, FIG. 1B): most sensitive EC50 values
Compound: NC(=O)c1cccc2cn(-c3ccc([C@@H]4CCCNC4)cc3)nc12 [Niraparib]
Tim4-Fc MFI (A2780-mCh-NLS cells; 1.56 and 25 μM Niraparib vs DMSO): increase | concentration at which anti-tumor effect begins (A2780-mCh-NLS cells): at least 1.56 μM | number of Kuramochi cells in culture ([1]; Niraparib 0.78 to 100 uM, t=50, FIG. 1A): decreases monotonically with increasing Niraparib concentration | elimination of the Kuramochi culture ([1]; FIG. 1B): almost eliminate the Kuramochi culture | membrane phospholipid symmetry (Ptd-Ser exposure) (Kuramochi cells; BRCA-2 mutated Kuramochi, brief exposure, 1.56 or 25 μM, FIG. 8A): elicits changes in membrane phospholipid symmetry, in a dose dependent manner | growth of Kuramochi cells (Kuramochi cells; FIG. 8A): effective in inhibiting growth | Tim4-Fc MFI (Kuramochi cells; Kuramochi, 25 μM Niraparib vs DMSO, FIG. 11B): increase | concentration at which anti-tumor effect begins (Kuramochi cells; Kuramochi, FIG. 11B): at least 25 μM

Compound: CNCc1ccc(-c2[nH]c3cc(F)cc4c3c2CCNC4=O)cc1 [Rucaparib]
elimination of the Kuramochi culture ([1]; FIG. 1B): almost eliminate the Kuramochi culture

EC50 values (ranking), number of Kuramochi cells ([1]; t=50 h, FIG. 1B): most sensitive EC50 values
Compound: Cn1ncnc1[C@H]1c2n[nH]c(=O)c3cc(F)cc(c23)N[C@@H]1c1ccc(F)cc1 [Talazoparib]

Compound: C[C@]1(c2nc3c(C(N)=O)cccc3[nH]2)CCCN1 [Veliparib]
impact on the number of detected Kuramochi cells ([1]; t=50 h, of the five PARP inhibitors tested, FIG. 1B): least impact
